Target: T1, FLT-3 tyrosine kinase (Homo sapiens, UniProt P36888)
T1 construct: purchased Upstate Cell Signalling Solutions, CA, USA 14-500
T1 sequence (P36888 27-993): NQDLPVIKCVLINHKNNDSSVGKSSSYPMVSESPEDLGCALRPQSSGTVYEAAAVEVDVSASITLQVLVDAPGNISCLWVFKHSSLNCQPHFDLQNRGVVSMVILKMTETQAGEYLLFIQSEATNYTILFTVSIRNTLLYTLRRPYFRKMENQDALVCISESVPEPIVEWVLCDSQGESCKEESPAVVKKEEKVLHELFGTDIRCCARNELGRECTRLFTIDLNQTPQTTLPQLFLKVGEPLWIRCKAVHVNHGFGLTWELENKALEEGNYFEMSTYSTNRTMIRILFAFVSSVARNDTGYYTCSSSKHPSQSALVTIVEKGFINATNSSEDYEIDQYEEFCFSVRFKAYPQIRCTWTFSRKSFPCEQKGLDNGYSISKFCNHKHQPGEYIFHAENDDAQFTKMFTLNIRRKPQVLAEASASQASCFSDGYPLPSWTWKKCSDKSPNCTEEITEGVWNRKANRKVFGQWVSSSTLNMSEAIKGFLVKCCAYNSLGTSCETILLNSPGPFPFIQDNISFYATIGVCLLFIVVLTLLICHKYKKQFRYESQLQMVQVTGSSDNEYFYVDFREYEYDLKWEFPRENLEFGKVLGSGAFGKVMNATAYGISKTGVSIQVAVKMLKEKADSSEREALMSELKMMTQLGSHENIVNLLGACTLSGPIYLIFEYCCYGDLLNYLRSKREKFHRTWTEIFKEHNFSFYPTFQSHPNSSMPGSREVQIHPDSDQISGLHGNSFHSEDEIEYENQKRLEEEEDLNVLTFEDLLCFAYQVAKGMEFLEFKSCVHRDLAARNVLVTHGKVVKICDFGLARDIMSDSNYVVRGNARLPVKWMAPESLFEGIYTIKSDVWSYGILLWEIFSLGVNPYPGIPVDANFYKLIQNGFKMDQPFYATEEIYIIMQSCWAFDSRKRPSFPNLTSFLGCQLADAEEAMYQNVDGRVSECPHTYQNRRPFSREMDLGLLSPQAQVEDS
Assay: Alphascreen protein tyrosine kinase assay, FLT-3
Format: biochemical
Settings: read-out: Flt3

IC50: > 10 µM
SMILES: Cc1cccc(C(=O)Nc2cccc([C@H](C)Nc3cncc(-c4ccc(S(N)(=O)=O)cc4)n3)c2)c1 [Compound 77]
